# Values quoted from earlier work, collected in PubChem BioAssay AID1259409 (Chemical Carcinogenesis Research Information System (CCRIS), 2018).
# System: rodent chemically induced tumor inhibition, incidence and multiplicity
# Assay: CCRIS tumor inhibitor studies
# Settings: Dose [Inhibitor]: 0, Route [Inhibitor]: ORAL, Promoter: NONE USED
smiles,measurement,setting,value
CC(C)=CCC/C(C)=C/C=C/C(C)=C/C=C/C(C)=C/C=C/C=C(C)/C=C/C=C(C)/C=C/C=C(\C)CCC=C(C)C,"tumour outcome (control, treated, inhibition, significance)","Carcinogen: DIETHYLNITROSAMINE, 55-18-5, N-METHYL-N-NITROSOUREA, 684-93-5, 1,2-DIMETHYLHYDRAZINE, 306-37-6, Carcinogen: DIETHYLNITROSAMINE, 55-18-5, N-METHYL-N-NITROSOUREA, 684-93-5, 1,2-DIMETHYLHYDRAZINE, 306-37-6, 25 PPM IN DRINKING WATER FOR 21 WK BEGINNING 2 WK POST CARCINOGEN TREATMENT (STUDY DURATION: 32 WK), Species: MOUSE, Strain/Sex: B6C3F1/MALE, Target Tissue: Type of Lesion: LUNG: ADENOMA, Dose [Carcinogen]: 10 MG/KG BW DEN ON DAYS 11 AND 32 OF AGE, 120 PPM MNU IN DRINKING WATER FROM WKS 4 TO 9, 20 MG/KG BW DMH 2/WK FOR 5 WK","11/16 (69%), 11/16 (69%), 0%, not significant"
same,"tumour outcome (control, treated, inhibition, significance)","Carcinogen: DIETHYLNITROSAMINE, 55-18-5, N-METHYL-N-NITROSOUREA, 684-93-5, 1,2-DIMETHYLHYDRAZINE, 306-37-6, Carcinogen: DIETHYLNITROSAMINE, 55-18-5, N-METHYL-N-NITROSOUREA, 684-93-5, 1,2-DIMETHYLHYDRAZINE, 306-37-6, 25 PPM IN DRINKING WATER FOR 21 WK BEGINNING 2 WK POST CARCINOGEN TREATMENT (STUDY DURATION: 32 WK), Species: MOUSE, Strain/Sex: B6C3F1/MALE, Target Tissue: Type of Lesion: LUNG: CARCINOMA, Dose [Carcinogen]: 10 MG/KG BW DEN ON DAYS 11 AND 32 OF AGE, 120 PPM MNU IN DRINKING WATER FROM WKS 4 TO 9, 20 MG/KG BW DMH 2/WK FOR 5 WK","1/16 (6%), 2/16 (13%), -116%, not significant"
same,"tumour outcome (control, treated, inhibition, significance)","Carcinogen: DIETHYLNITROSAMINE, 55-18-5, N-METHYL-N-NITROSOUREA, 684-93-5, 1,2-DIMETHYLHYDRAZINE, 306-37-6, Carcinogen: DIETHYLNITROSAMINE, 55-18-5, N-METHYL-N-NITROSOUREA, 684-93-5, 1,2-DIMETHYLHYDRAZINE, 306-37-6, 50 PPM IN DRINKING WATER FOR 21 WK BEGINNING 2 WK POST CARCINOGEN TREATMENT (STUDY DURATION: 32 WK), Species: MOUSE, Strain/Sex: B6C3F1/FEMALE, Target Tissue: Type of Lesion: LUNG: ADENOMA, Dose [Carcinogen]: 10 MG/KG BW DEN ON DAYS 11 AND 32 OF AGE, 120 PPM MNU IN DRINKING WATER FROM WKS 4 TO 9, 20 MG/KG BW DMH 2/WK FOR 5 WK","6/16 (38%), 8/15 (53%), -39%, not significant"
same,"tumour outcome (control, treated, inhibition, significance)","Carcinogen: DIETHYLNITROSAMINE, 55-18-5, N-METHYL-N-NITROSOUREA, 684-93-5, 1,2-DIMETHYLHYDRAZINE, 306-37-6, Carcinogen: DIETHYLNITROSAMINE, 55-18-5, N-METHYL-N-NITROSOUREA, 684-93-5, 1,2-DIMETHYLHYDRAZINE, 306-37-6, 50 PPM IN DRINKING WATER FOR 21 WK BEGINNING 2 WK POST CARCINOGEN TREATMENT (STUDY DURATION: 32 WK), Species: MOUSE, Strain/Sex: B6C3F1/MALE, Target Tissue: Type of Lesion: LUNG: ADENOMA, Dose [Carcinogen]: 10 MG/KG BW DEN ON DAYS 11 AND 32 OF AGE, 120 PPM MNU IN DRINKING WATER FROM WKS 4 TO 9, 20 MG/KG BW DMH 2/WK FOR 5 WK","11/16 (69%), 3/16 (19%), 72%, p<0.02"
same,"tumour outcome (control, treated, inhibition, significance)","Carcinogen: DIETHYLNITROSAMINE, 55-18-5, N-METHYL-N-NITROSOUREA, 684-93-5, 1,2-DIMETHYLHYDRAZINE, 306-37-6, Carcinogen: DIETHYLNITROSAMINE, 55-18-5, N-METHYL-N-NITROSOUREA, 684-93-5, 1,2-DIMETHYLHYDRAZINE, 306-37-6, 50 PPM IN DRINKING WATER FOR 21 WK BEGINNING 2 WK POST CARCINOGEN TREATMENT (STUDY DURATION: 32 WK), Species: MOUSE, Strain/Sex: B6C3F1/MALE, Target Tissue: Type of Lesion: LUNG: CARCINOMA, Dose [Carcinogen]: 10 MG/KG BW DEN ON DAYS 11 AND 32 OF AGE, 120 PPM MNU IN DRINKING WATER FROM WKS 4 TO 9, 20 MG/KG BW DMH 2/WK FOR 5 WK","1/16 (6%), 0/16 (0%), 100%, not significant"
same,"tumour outcome (control, treated, inhibition, significance)","Carcinogen: N-BUTYL-N-(4-HYDROXYBUTYL)NITROSAMINE, 3817-11-6, 0.0025% IN DRINKING WATER FOR 12 WK BEGINNING POST CARCINOGEN TREATMENT (STUDY DURATION: 20 WK), Species: RAT, Strain/Sex: F344/MALE, Target Tissue: Type of Lesion: URINARY BLADDER: TRANSITIONAL CELL CARCINOMA, Dose [Carcinogen]: 0.05% IN DRINKING WATER FOR 8 WK","10/12 (83%), 10/12 (83%), 0%, not significant"
same,"tumour outcome (control, treated, inhibition, significance)","Carcinogen: N-METHYLNITROSAUREA, 684-93-5, 17 PPM IN TOMATO JUICE AND WATER (1:2) AS DRINKING FLUID FOR DURATION OF STUDY (STUDY DURATION: 35 WK), Species: RAT, Strain/Sex: F344/FEMALE, Target Tissue: Type of Lesion: COLON: TUMOR, Dose [Carcinogen]: 0.4% (0.5 ML) AQUEOUS SOLUTION 3/WK FOR 3 WK","13/24 (54%), 5/24 (21%), 61%, p<0.02"
same,"tumour outcome (control, treated, inhibition, significance)","Carcinogen: N-METHYLNITROSOUREA, 684-93-5, 3.4 PPM IN TOMATO JUICE AND WATER (1:14) AS DRINKING FLUID FOR DURATION OF STUDY (STUDY DURATION: 35 WK), Species: RAT, Strain/Sex: F344/FEMALE, Target Tissue: Type of Lesion: COLON: TUMOR, Dose [Carcinogen]: 0.8% (0.5 ML) AQUEOUS SOLUTION 3/WK FOR 3 WKS","21/25 (84%), 18/25 (72%), 14%, not significant"
same,"tumour outcome (control, treated, inhibition, significance)","Carcinogen: N-METHYLNITROSOUREA, 684-93-5, 17 PPM IN DRINKING WATER FOR DURATION OF STUDY (STUDY DURATION: 35 WK), Species: RAT, Strain/Sex: F344/FEMALE, Target Tissue: Type of Lesion: COLON: TUMOR, Dose [Carcinogen]: 0.4% (0.5 ML) AQUEOUS SOLUTION 3/WK FOR 3 WK","13/24 (54%), 8/24 (33%), 39%, not significant"
same,"tumour outcome (control, treated, inhibition, significance)","Carcinogen: N-METHYLNITROSOUREA, 684-93-5, 17 PPM IN TOMATO JUICE AND WATER (1:2) AS DRINKING FLUID FOR DURATION OF STUDY (STUDY DURATION: 35 WK), Species: RAT, Strain/Sex: F344/FEMALE, Target Tissue: Type of Lesion: COLON: TUMOR, Dose [Carcinogen]: 0.8% (0.5 ML) AQUEOUS SOLUTION 3/WK FOR 3 WK","21/25 (84%), 10/25 (40%), 52%, p<0.01"
